Source: patent publication US6395746B1, “Methods of treating ophthalmic, otic and nasal infections and attendant inflammation” (Alcon Manufacturing, Ltd., priority 1998, dated 2002)
Converted amounts (≈) assume the structure as drawn.

How the values were obtained:
Assay in all cases: Minimum inhibitory concentration (MIC90)
Type in all cases: cell-based
[1] = system: S. epidermidis/methicillin sensitive
Excerpt: (§1) The concentrations of the antibiotics of formula (I) in the compositions of the present invention will vary depending on the intended use of the compositions (e.g., treatment of existing infections or prevention of post-surgical infections), and the relative antimicrobial activity of the specific antibiotic selected. The antimicrobial activity of antibiotics is generally expressed as the minimum concentration required to inhibit the growth of a specified pathogen. This concentration is also referred to as the “minimum inhibitory concentration” or “MIC”. The term “MIC90” refers to the minimum concentration of antibiotic required to inhibit the growth of ninety percent (90%) of the strains of a species. The concentration of an antibiotic required to totally kill a specified bacteria is referred to as the “minimum bactericidal concentration” or “MBC”. The minimum inhibitory concentration of Trovafloxacin for several bacteria commonly associated with ophthalmic, otic and nasal infections are provided in the following table: […]

[2] = system: S. pneumoniae/penicillin sensitive
Excerpt: as §1

P. aeruginosa = system: P. aeruginosa
Excerpt: as §1

[3] = system: S. aureus/quinolone resistant
Excerpt: as §1

[4] = system: S. aureus/methicillin resistant
Excerpt: as §1

[5] = system: S. aureus/methicillin sensitive
Excerpt: as §1

[6] = system: S. pneumoniae/penicillin resistant
Excerpt: as §1

[7] = system: H. influenzae/βlactamase negative
Excerpt: as §1

[8] = system: H. influenzae/β-lactamase positive
Excerpt: as §1

[9] = system: S. epidermidis/methicillin resistant
Excerpt: as §1

N[C@@H]1[C@H]2CN(c3nc4c(cc3F)c(=O)c(C(=O)O)cn4-c3ccc(F)cc3F)C[C@@H]12 [Trovafloxacin]
MIC90 [1]: 0.06 µg/mL (≈ 0.144 µM)
MIC90 [2]: 0.25 µg/mL (≈ 0.6 µM)
MIC90 (P. aeruginosa): 2.0 µg/mL (≈ 4.8 µM)
MIC90 [3]: 4.0 µg/mL (≈ 9.61 µM)
MIC90 [4]: 2.0 µg/mL (≈ 4.8 µM)
MIC90 [5]: 0.03 µg/mL (≈ 0.0721 µM)
MIC90 [6]: 0.25 µg/mL (≈ 0.6 µM)
MIC90 [7]: 0.03 µg/mL (≈ 0.0721 µM)
MIC90 [8]: 0.03 µg/mL (≈ 0.0721 µM)
MIC90 [9]: 4.0 µg/mL (≈ 9.61 µM)
